In patent publication US20120141386A1, “Application of Antimicrobial and Glycemic Control Activities of Lo Han Kuo Fruit (Siraitia grosvenorii)” (ORACEUTICALS, INC., priority 2010, published 2012):
“Also recorded” adds a separate entry of the source. Like-named read-outs stand apart in the source and are kept apart here.

Tests used:
Format in all cases: cell-based
C. albicans = experiment: In vitro inhibition of growth of C. albicans
Protocol: Mogroside II, III, IV, V, VI, 11-o-Mogroside V, and Siamenoside I were also evaluated in vitro for inhibition of growth of C. albicans.

A. actinomycetemcomitans = experiment: Inhibition of growth of oral bacteria, A. actinomycetemcomitans; conditions: 500 μM
Protocol: (§1) The concentration of 500 μM of mogroside II, III, IV, V, VI, 11-o-Mogroside V, and Siamenoside I, siraitiflavandiol, rhamnocitrin-3-O-rhamnoside, and kaempferitrin were used to test the inhibition activity against the growth of oral bacteria, A. actinomycetemcomitans and P. gingivalis.

P. gingivalis = experiment: Inhibition of growth of oral bacteria, P. gingivalis
Protocol: as §1

| Compound | antimicrobial activity against C. albicans (growth inhibition) (C. albicans; in vitro) | antimicrobial activity against A. actinomycetemcomitans (growth inhibition) (A. actinomycetemcomitans) | antimicrobial activity against P. gingivalis (growth inhibition) (P. gingivalis; 500 μM) | antimicrobial activity against C. albicans (growth inhibition) (C. albicans) | antimicrobial activity against P. gingivalis (growth inhibition) (P. gingivalis) |
| --- | --- | --- | --- | --- | --- |
| C[C@H](CC[C@@H](O[C@@H]1O[C@H](CO[C@@H]2O[C@H](CO)[C@@H](O)[C@H](O)[C@H]2O)[C@@H](O)[C@H](O)[C@H]1O[C@@H]1O[C@H](CO)[C@@H](O)[C@H](O)[C@H]1O)C(C)(C)O)[C@H]1CC[C@@]2(C)[C@@H]3CC=C4[C@@H](CC[C@H](O[C@@H]5O[C@H](CO[C@@H]6O[C@H](CO)[C@@H](O)[C@H](O)[C@H]6O)[C@@H](O)[C@H](O)[C@H]5O)C4(C)C)[C@]3(C)C(=O)C[C@]12C [11-o-Mogroside V] | higher antimicrobial activity than mogroside VI and Siamenoside I | higher antimicrobial activity than mogroside II and III | higher antimicrobial activity than mogroside III |  |  |
| C[C@H](CC[C@@H](O[C@@H]1O[C@H](CO[C@@H]2O[C@H](CO)[C@@H](O)[C@H](O)[C@H]2O)[C@@H](O)[C@H](O)[C@H]1O[C@@H]1O[C@H](CO)[C@@H](O)[C@H](O)[C@H]1O)C(C)(C)O)[C@H]1CC[C@@]2(C)[C@@H]3CC=C4[C@@H](CC[C@H](O[C@@H]5O[C@H](CO)[C@@H](O)[C@H](O)[C@H]5O)C4(C)C)[C@]3(C)[C@H](O)C[C@]12C [Siamenoside I] | mogroside II, III, IV, V, and 11-o-Mogroside V showed higher antimicrobial activity than mogroside VI and Siamenoside I |  |  |  |  |
| C[C@@H]1O[C@@H](Oc2cc(O)c3c(=O)c(O[C@@H]4O[C@@H](C)[C@H](O)[C@@H](O)[C@H]4O)c(-c4ccc(O)cc4)oc3c2)[C@H](O)[C@H](O)[C@H]1O [kaempferitrin] | good activity |  | highest activity |  |  |
| C[C@H](CC[C@@H](O[C@@H]1O[C@H](CO[C@@H]2O[C@H](CO)[C@@H](O)[C@H](O)[C@H]2O)[C@@H](O)[C@H](O)[C@H]1O)C(C)(C)O)[C@H]1CC[C@@]2(C)[C@@H]3CC=C4[C@@H](CC[C@H](O[C@@H]5O[C@H](CO)[C@@H](O)[C@H](O)[C@H]5O)C4(C)C)[C@]3(C)[C@H](O)C[C@]12C [mogroside III] | higher antimicrobial activity than mogroside VI and Siamenoside I | mogroside IV, V, VI, 11-o-Mogroside V showed higher antimicrobial activity than mogroside II and III | mogroside II, IV, V, VI, 11-o-Mogroside V showed higher antimicrobial activity than mogroside III |  |  |
| C[C@H](CC[C@@H](O[C@@H]1O[C@H](CO)[C@@H](O)[C@H](O)[C@H]1O[C@@H]1O[C@H](CO)[C@@H](O)[C@H](O)[C@H]1O)C(C)(C)O)[C@H]1CC[C@@]2(C)[C@H]3CC=C4[C@@H](CC[C@H](O[C@@H]5O[C@H](CO[C@@H]6O[C@H](CO)[C@@H](O)[C@H](O)[C@H]6O)[C@@H](O)[C@H](O)[C@H]5O)C4(C)C)[C@]3(C)[C@H](O)C[C@]12C [mogroside IV] | higher antimicrobial activity than mogroside VI and Siamenoside I | higher antimicrobial activity than mogroside II and III | higher antimicrobial activity than mogroside III |  |  |
| C[C@H](CC[C@@H](O[C@@H]1O[C@H](CO[C@@H]2O[C@H](CO)[C@@H](O)[C@H](O)[C@H]2O)[C@@H](O)[C@H](O)[C@H]1O[C@@H]1O[C@H](CO)[C@@H](O)[C@H](O)[C@H]1O)C(C)(C)O)[C@H]1CC[C@@]2(C)[C@@H]3CC=C4[C@@H](CC[C@H](O[C@@H]5O[C@H](CO[C@@H]6O[C@H](CO)[C@@H](O)[C@H](O)[C@H]6O)[C@@H](O)[C@H](O)[C@H]5O)C4(C)C)[C@]3(C)[C@H](O)C[C@]12C [mogroside V, Mogroside V] | higher antimicrobial activity than mogroside VI and Siamenoside I | higher antimicrobial activity than mogroside II and III; also recorded: highest activity | higher antimicrobial activity than mogroside III |  |  |
| C[C@H](CC[C@@H](O[C@@H]1O[C@H](CO[C@@H]2O[C@H](CO)[C@@H](O)[C@H](O)[C@H]2O)[C@@H](O)[C@H](O)[C@H]1O[C@@H]1O[C@H](CO)[C@@H](O)[C@H](O)[C@H]1O)C(C)(C)O)[C@H]1CC[C@@]2(C)[C@H]3CC=C4[C@H](CC[C@H](O[C@@H]5O[C@H](CO[C@@H]6O[C@H](CO)[C@@H](O)[C@H](O)[C@H]6O)[C@@H](O)[C@H](O)[C@H]5O[C@@H]5O[C@H](CO)[C@@H](O)[C@H](O)[C@H]5O)C4(C)C)[C@]3(C)[C@H](O)C[C@]12C [mogroside VI] | mogroside II, III, IV, V, and 11-o-Mogroside V showed higher antimicrobial activity than mogroside VI and Siamenoside I | higher antimicrobial activity than mogroside II and III | higher antimicrobial activity than mogroside III |  |  |
| mogroside II | higher antimicrobial activity than mogroside VI and Siamenoside I | mogroside IV, V, VI, 11-o-Mogroside V showed higher antimicrobial activity than mogroside II and III | higher antimicrobial activity than mogroside III |  |  |
| rhamnocitrin-3-O-rhamnoside |  |  |  | good activity | highest activity |
| siraitiflavandiol | good activity |  | highest activity |  |  |
